# How the values were obtained:
# Experiment in all cases: KINOMEscan
# Format in all cases: binding
# Conditions in all cases: read-out: % control activity remaining
# EPHA6 = target: T1, EPHA6 (Homo sapiens, UniProt Q9UF33)
# T1 construct: purchased Eurofins DiscoverX KINOMEscan
# T1 sequence (Q9UF33 23-1036): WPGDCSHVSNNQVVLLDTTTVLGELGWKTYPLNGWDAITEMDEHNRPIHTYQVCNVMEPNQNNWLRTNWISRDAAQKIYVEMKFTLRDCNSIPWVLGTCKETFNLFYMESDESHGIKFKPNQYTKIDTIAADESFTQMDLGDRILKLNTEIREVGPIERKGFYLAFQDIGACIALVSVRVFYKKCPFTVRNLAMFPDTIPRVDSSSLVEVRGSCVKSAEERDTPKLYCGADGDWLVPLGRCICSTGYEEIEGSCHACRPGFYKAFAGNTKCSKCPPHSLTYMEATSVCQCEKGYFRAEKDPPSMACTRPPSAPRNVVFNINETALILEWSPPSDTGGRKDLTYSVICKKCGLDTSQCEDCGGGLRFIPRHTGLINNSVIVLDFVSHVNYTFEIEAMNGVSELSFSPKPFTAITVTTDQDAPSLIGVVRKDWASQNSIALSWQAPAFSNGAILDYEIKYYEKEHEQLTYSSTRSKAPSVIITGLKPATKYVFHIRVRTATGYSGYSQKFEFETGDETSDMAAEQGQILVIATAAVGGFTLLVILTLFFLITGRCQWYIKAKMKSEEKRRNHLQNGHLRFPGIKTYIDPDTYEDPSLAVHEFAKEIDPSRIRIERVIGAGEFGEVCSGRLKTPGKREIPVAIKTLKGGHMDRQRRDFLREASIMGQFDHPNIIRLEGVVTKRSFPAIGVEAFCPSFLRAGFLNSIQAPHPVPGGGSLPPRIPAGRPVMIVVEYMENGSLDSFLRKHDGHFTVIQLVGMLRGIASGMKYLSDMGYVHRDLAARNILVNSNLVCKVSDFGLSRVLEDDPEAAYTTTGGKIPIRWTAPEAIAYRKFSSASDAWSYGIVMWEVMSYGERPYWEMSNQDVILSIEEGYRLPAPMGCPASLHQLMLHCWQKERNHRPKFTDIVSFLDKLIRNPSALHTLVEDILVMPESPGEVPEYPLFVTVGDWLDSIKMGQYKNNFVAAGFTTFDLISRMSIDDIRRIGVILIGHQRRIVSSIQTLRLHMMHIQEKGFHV
# GAK = target: T2, GAK (Homo sapiens, UniProt O14976)
# T2 construct: purchased Eurofins DiscoverX KINOMEscan
# T2 sequence (O14976 1-1311): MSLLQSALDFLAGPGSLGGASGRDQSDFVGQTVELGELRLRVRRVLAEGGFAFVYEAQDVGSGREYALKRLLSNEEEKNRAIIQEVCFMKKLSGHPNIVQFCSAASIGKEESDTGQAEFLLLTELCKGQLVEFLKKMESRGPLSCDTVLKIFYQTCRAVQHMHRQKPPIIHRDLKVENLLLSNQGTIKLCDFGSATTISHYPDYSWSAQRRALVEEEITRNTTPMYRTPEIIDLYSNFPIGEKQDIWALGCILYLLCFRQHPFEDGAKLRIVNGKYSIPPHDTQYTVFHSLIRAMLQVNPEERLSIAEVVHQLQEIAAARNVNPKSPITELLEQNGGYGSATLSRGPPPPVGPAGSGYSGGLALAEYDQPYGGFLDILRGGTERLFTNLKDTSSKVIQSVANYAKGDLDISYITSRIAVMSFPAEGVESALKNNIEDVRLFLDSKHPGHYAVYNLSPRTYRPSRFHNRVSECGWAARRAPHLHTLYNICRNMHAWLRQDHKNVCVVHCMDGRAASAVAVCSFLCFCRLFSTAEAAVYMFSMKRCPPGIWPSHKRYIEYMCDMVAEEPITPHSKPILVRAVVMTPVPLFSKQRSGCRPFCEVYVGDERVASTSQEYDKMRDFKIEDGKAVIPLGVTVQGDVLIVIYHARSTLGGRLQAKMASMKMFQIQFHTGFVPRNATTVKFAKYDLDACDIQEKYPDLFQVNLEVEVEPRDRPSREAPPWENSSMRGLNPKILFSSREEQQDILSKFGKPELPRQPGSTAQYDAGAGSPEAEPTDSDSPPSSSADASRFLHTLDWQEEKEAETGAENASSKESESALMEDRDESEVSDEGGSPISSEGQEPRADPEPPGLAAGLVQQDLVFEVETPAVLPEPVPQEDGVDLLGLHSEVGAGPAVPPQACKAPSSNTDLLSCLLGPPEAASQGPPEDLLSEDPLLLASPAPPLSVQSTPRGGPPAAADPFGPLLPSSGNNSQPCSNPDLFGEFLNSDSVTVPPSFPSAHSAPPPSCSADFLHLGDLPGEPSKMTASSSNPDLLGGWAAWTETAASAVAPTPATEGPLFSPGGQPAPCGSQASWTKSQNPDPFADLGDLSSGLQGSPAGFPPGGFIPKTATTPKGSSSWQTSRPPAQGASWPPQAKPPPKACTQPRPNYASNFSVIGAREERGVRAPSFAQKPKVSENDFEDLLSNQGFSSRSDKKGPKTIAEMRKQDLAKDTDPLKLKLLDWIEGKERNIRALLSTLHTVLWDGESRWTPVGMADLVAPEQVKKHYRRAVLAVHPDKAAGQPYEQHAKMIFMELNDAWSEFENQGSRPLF
# p38-delta = target: T3, p38-delta (Homo sapiens, UniProt O15264)
# T3 construct: purchased Eurofins DiscoverX KINOMEscan
# T3 sequence (O15264 1-365): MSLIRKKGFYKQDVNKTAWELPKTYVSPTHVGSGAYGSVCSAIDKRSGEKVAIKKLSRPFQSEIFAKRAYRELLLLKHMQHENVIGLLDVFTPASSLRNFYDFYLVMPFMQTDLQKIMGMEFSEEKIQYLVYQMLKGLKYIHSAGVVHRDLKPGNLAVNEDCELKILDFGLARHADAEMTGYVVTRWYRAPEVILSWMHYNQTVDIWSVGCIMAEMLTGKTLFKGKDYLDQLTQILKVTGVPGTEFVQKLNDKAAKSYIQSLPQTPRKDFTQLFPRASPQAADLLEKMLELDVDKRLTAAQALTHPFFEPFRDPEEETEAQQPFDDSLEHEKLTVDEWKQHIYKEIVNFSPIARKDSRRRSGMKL
smiles,measurement,setting,value
"Clc1cc(NCC2CC2)c2ncc(-c3ccc4[nH]ncc4c3)n2n1 [compound 2, 6-Chloro-N-(cyclopropylmethyl)-3-(1H-indazol-5-yl)imidazo[1,2-b]pyridazin-8-amine]",remaining binding at 1 µM,EPHA6,79%
same,remaining binding at 1 µM,GAK,8.8%
same,remaining binding at 1 µM,p38-delta,89%
O=C(CN1CCOCC1)N[C@H]1CC[C@H](Nc2cc(Cl)nn3c(-c4ccc5[nH]ncc5c4)cnc23)CC1 [compound 26],remaining binding at 1 µM,EPHA6,93%
same,remaining binding at 1 µM,GAK,10%
same,remaining binding at 1 µM,p38-delta,60%
"CN1CCC(CNc2cc(Cl)nn3c(-c4cc5nc(Nc6ccccc6)[nH]c5cc4F)cnc23)CC1 [compound 31, 6-Chloro-3-(6-fluoro-2-(phenylamino)-1H-benzo[d]imidazol-5-yl)-N-((1-methylpiperidin-4-yl)methyl)imidazo[1,2-b]pyridazin-8-amine]",remaining binding at 1 µM,EPHA6,82%
same,remaining binding at 1 µM,GAK,33%
same,remaining binding at 1 µM,p38-delta,72%

# Source: article PMC6437697 (Journal of Medicinal Chemistry, 2019)
